# Reference: patent US20200115353A1, “NEW COMPOUNDS INHIBITORS OF THE YAP/TAZ-TEAD INTERACTION AND THEIR USE IN THE TREATMENT OF MALIGNANT MESOTHELIOMA” (INVENTIVA, priority 2017, published 2020)
# Tested on: not given
# Assay: not given
# Conditions: not given
row,melting point [°C],Compound
1,256 to 258,"COc1cc(/C=N/N(CCc2ccccc2)C2=NS(=O)(=O)c3ccccc32)ccc1F [Ex 46, N-[(E)-(4-fluoro-3-methoxy-phenyl)methyleneamino]-1,1-dioxo-N-(2-phenylethyl)-1,2-benzothiazol-3-amine]"
2,258,"COc1cc(/C=N/N(C)C2=NS(=O)(=O)c3cc(O)ccc32)ccc1F [Ex 51, 3-[[(E)-(4-fluoro-3-methoxy-phenyl)methyleneamino]-methyl-amino]-1,1-dioxo-1,2-benzothiazol-6-ol]"
3,207 to 208,"COc1cc(/C=N/N(CC(C)(C)CO)C2=NS(=O)(=O)c3ccccc32)ccc1F [Ex 108, 3-[(1,1-dioxo-1,2-benzothiazol-3-yl)-[(E)-(4-fluoro-3-methoxy-phenyl)methyleneamino]amino]-2,2-dimethyl-propan-1-ol]"
4,258 to 261,"CN(/N=C/c1ccc(N2CCOCC2)cc1)C1=NS(=O)(=O)c2ccccc21 [Ex 3, N-methyl-N-[(E)-(4-morpholinophenyl)methyleneamino]-1,1-dioxo-1,2-benzothiazol-3-amine]"
5,219 to 221,"CN(/N=C/c1ccc(F)c(Cl)n1)C1=NS(=O)(=O)c2ccccc21 [Ex 37, N-[(E)-(6-chloro-5-fluoro-2-pyridyl)methyleneamino]-N-methyl-1,1-dioxo-1,2-benzothiazol-3-amine]"
6,> 300,"CN(/N=C/c1ccc2c(c1)C(C)(C)C(=O)N2)C1=NS(=O)(=O)c2ccccc21 [Ex 33, 5-[(E)-[(1,1-dioxo-1,2-benzothiazol-3-yl)-methyl-hydrazono]methyl]-3,3-dimethyl-indolin-2-one]"
7,> 295,"CN(/N=C/c1ccc2c(c1)C(C)(C)NC2=O)C1=NS(=O)(=O)c2ccccc21 [Ex 32, 5-[(E)-[(1,1-dioxo-1,2-benzothiazol-3-yl)-methyl-hydrazono]methyl]-3,3-dimethyl-isoindolin-1-one]"

# Molecular target: T1, YAP-TEAD interaction (full length human TEAD1-Gal4 fusion, full length YAP mutant S127A, S397A) (UniProt P04386+P28347)
# T1 construct: The TEAD1 construct was prepared by cloning the full length human TEAD1 cDNA; expressed in transfected cells; host or cells: HEK293 GripTite 293 MSR (Invitrogen R795-07), transiently transfected with pSG5_CMV plasmids
# Assay: Cell-based TEAD-GAL4 transactivation assay (luciferase reporter, HEK293)
# Conditions: HEK293 cells, compounds 0.1 μM to 30 μM, 24 h, concentration that inhibited the luciferase activity by 50%
# Protocol: To identify inhibitors of YAP-TEAD interaction, a transient transactivation assays was carried out into HEK293 cell line (HEK293 GripTite™ 293 MSR (Invitrogen R795-07)) using plasmids containing the full length TEAD1 sequences, the full length YAP mutant (S127A, S397A) and a luciferase gene reporter. All expression constructs were performed into pSG5 backbone plasmid in which the SV40 promoter was replaced by the CMV promoter. The TEAD1 construct was prepared by cloning the full length human TEAD1 cDNA in fusion with the Gal4 DNA Binding Domain (AA 1-148) into pSG5_CMV to create the TEAD1(FL)_hum_pSG5Gal4_CMV. The full length YAP mutant (S127A, S397A) was also cloned into pSG_5 CMV to create the YAP(FL)_hum_pSG5_[…]. The reporter plasmid GAL4(5×RE)_[…]_pGL3-Basic contains 5 copies of the GAL4 responsive element (5′-TCGGAGGACAGTACTCC-3′) upstream of the thymidine kinase (TK) promoter (−105/+56) inserted in a pGL3-Basic vector. To evaluate the selectivity of our compounds in blocking the YAP-TEAD interaction, a counter-screening protein-protein interaction transactivation assays was also established. Briefly, two other expression plasmids, the pBD-P53 which express the P53 (AA 72-390) in fusion with Gal4 and the pAD-SV40T which express the SV40 large T antigen (AA 84-708,AgT), were created. HEK293 cells were seeded at 5×10^4 cells/well in 96 well plates (assay plates) in DMEM medium containing 4.5 g/L D-glucose, 10% high inactivated (HI) fetal bovine serum 1% Glutamax, 1% non-essential amino acid and 1% sodium pyruvate and 0.5% penicillin/streptomycin 37° C. in a humidified atmosphere of 8% CO2. After 24 h, transfections are performed using Jet-PEI as transfectant (101B-010 Polyplus Transfection), according to the instructions of the manufacturer (N/P=10) and a ratio YAP/TEAD=10 (per well: 50 ng of YAP(FL), 5 ng of TEAD(FL) and 50 ng of reporter plasmid). Six hours after cell transfection, the plates (‘assay plate’) were washed with 100 μl PBS per well and cell were treated with compounds in semi-log from 0.1 μM to 30 μM or DMSO 0.5% as control in DMEM 4.5 g/L D-Glucose without phenol red, 0.3% BSA, 1% glutamax, 1% NEAA, 1% sodium pyruvate. Twenty-four hours later, the luciferase activity was determined after addition of 100 μl of Steady Glo™ luciferase assay system (Promega E2550) according to the manufacturer's directions. Luciferase activity in cell extracts is measured by reading luminescence using the Envision device.
# The cellular response was determined by fitting the concentration response curves using a 3-parameter curve fit equation and determining the concentration that inhibited the luciferase activity by 50%.
# T1 sequence (P04386+P28347 fused, stated change not applied): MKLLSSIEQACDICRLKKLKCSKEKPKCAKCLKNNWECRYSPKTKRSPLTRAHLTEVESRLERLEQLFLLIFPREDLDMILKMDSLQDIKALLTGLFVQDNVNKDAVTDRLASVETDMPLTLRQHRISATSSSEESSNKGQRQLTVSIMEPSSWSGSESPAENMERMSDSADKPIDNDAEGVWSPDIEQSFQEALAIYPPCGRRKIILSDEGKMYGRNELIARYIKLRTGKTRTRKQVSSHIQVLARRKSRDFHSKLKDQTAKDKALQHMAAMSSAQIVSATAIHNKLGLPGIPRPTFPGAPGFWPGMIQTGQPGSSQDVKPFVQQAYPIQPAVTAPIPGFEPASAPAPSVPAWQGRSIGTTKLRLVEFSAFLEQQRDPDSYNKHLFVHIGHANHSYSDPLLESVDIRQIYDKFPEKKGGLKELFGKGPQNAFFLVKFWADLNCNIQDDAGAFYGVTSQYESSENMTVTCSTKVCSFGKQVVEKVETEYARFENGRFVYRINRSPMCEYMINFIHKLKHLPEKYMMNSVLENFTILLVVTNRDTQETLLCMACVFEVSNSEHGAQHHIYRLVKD
row,Compound,IC50 [µM]
1,"COc1cc(/C=N/N(C)C2=NS(=O)(=O)c3ccc([N+](=O)[O-])cc32)ccc1F [Ex 47, N-[(E)-(4-fluoro-3-methoxy-phenyl)methyleneamino]-N-methyl-5-nitro-1,1-dioxo-1,2-benzothiazol-3-amine]",3.4
2,"COc1cc(/C=N/N(CC(C)C)C2=NS(=O)(=O)c3cc(OCB(O)O)ccc32)ccc1F [Ex 92, [3-[[(E)-(4-fluoro-3-methoxy-phenyl)methyleneamino]-isobutyl-amino]-1,1-dioxo-1,2-benzothiazol-6-yl]oxymethylboronic acid]",0.86
3,"COc1cc(/C=N/N(C)C2=NS(=O)(=O)c3cc(N)ccc32)ccc1F [Ex 49, N3-[(E)-(4-fluoro-3-methoxy-phenyl)methyleneamino]-N3-methyl-1,1-dioxo-1,2-benzothiazole-3,6-diamine]",3.11
4,"COc1cc(/C=N/N(C)C2=NS(=O)(=O)c3ccc(OCC(=O)N(C)C)cc32)ccc1F [Ex 58, 2-[[3-[[(E)-(4-fluoro-3-methoxy-phenyl)methyleneamino]-methyl-amino]-1,1-dioxo-1,2-benzothiazol-5-yl]oxy]-N,N-dimethyl-acetamide]",3.42
5,"COc1cc(/C=N/N(CC(C)C)C2=NS(=O)(=O)c3ccc(B(O)O)cc32)ccc1F [Ex 94, [3-[[(E)-(4-fluoro-3-methoxy-phenyl)methyleneamino]-isobutyl-amino]-1,1-dioxo-1,2-benzothiazol-5-yl]boronic acid]",3.31
6,"COCn1c(=O)n(C2CCC2)c2cc(/C=N/N(C)C3=NS(=O)(=O)c4ccccc43)ccc21 [Ex 111, 3-cyclobutyl-5-[(E)-[(1,1-dioxo-1,2-benzothiazol-3-yl)-methyl-hydrazono]methyl]-1-(methoxymethyl)benzimidazol-2-one]",8.57
7,"COc1cc(/C=N/N(CC(C)C)C2=NS(=O)(=O)c3cc(B4OC(=O)CN(C)CC(=O)O4)ccc32)ccc1F [Ex 69, 2-[3-[[(E)-(4-fluoro-3-methoxy-phenyl)methyleneamino]-isobutyl-amino]-1,1-dioxo-1,2-benzothiazol-6-yl]-6-methyl-1,3,6,2-dioxazaborocane-4,8-dione]",1.04
8,"CCOc1cc(/C=N/N(C)C2=NS(=O)(=O)c3ccccc32)ccc1F [Ex 11, N-[(E)-(3-ethoxy-4-fluoro-phenyl)methyleneamino]-N-methyl-1,1-dioxo-1,2-benzothiazol-3-amine]",2.85
9,"CN(/N=C/c1cnc(N2CCCC2)s1)C1=NS(=O)(=O)c2ccccc21 [Ex 6, N-methyl-1,1-dioxo-N-[(E)-(2-pyrrolidin-1-ylthiazol-5-yl)methyleneamino]-1,2-benzothiazol-3-amine]",1.07
10,"COc1cc(C2=NN(C3=NS(=O)(=O)c4cc(B(O)O)ccc43)C(C)CC2)ccc1F (stereo not drawn) [Ex 109, [3-[6-(4-fluoro-3-methoxy-phenyl)-3-methyl-4,5-dihydro-3H-pyridazin-2-yl]-1,1-dioxo-1,2-benzothiazol-6-yl]boronic acid]",0.7
11,"CSc1cc(/C=N/N(C)C2=NS(=O)(=O)c3ccccc32)ccc1F [Ex 86, N-[(E)-(4-fluoro-3-methylsulfanyl-phenyl)methyleneamino]-N-methyl-1,1-dioxo-1,2-benzothiazol-3-amine]",1.31
12,"CCOCn1c(=O)n(C2CCC2)c2cc(/C=N/N(C)C3=NS(=O)(=O)c4ccccc43)ccc21 [Ex 116, 3-cyclobutyl-5-[(E)-[(1,1-dioxo-1,2-benzothiazol-3-yl)-methyl-hydrazono]methyl]-1-(ethoxymethyl)benzimidazol-2-one]",5.03
13,"CN(/N=C/c1cccc(N(C)C)c1)C1=NS(=O)(=O)c2ccccc21 [Ex 4, N-[(E)-[3-(dimethylamino)phenyl]methyleneamino]-N-methyl-1,1-dioxo-1,2-benzothiazol-3-amine]",11.9
14,"CSc1cc(/C=N/N(CC(C)C)C2=NS(=O)(=O)c3ccccc32)ccc1F [Ex 107, N-[(E)-(4-fluoro-3-methylsulfanyl-phenyl)methyleneamino]-N-isobutyl-1,1-dioxo-1,2-benzothiazol-3-amine]",2.14
15,"CN(/N=C/c1cccc(OCCO)c1)C1=NS(=O)(=O)c2ccccc21 [Ex 2, 2-[3-[(E)-[(1,1-dioxo-1,2-benzothiazol-3-yl)-methyl-hydrazono]methyl]phenoxy]ethanol]",1.11
16,"CCC1(CC)C(=O)Nc2ccc(/C=N/N(CC(C)C)C3=NS(=O)(=O)c4cc(OC(C)C)ccc43)cc21 [Ex 99, 3,3-diethyl-5-[(E)-[isobutyl-(6-isopropoxy-1,1-dioxo-1,2-benzothiazol-3-yl)hydrazono]methyl]indolin-2-one]",4.14
17,"CCCOc1cc(/C=N/N(C)C2=NS(=O)(=O)c3ccccc32)ccc1F [Ex 12, N-[(E)-(4-fluoro-3-propoxy-phenyl)methyleneamino]-N-methyl-1,1-dioxo-1,2-benzothiazol-3-amine]",1.56
18,"COc1cc(/C=N/N(CC(C)C)C2=NS(=O)(=O)c3ccccc32)ccc1F [Ex 40, N-[(E)-(4-fluoro-3-methoxy-phenyl)methyleneamino]-N-isobutyl-1,1-dioxo-1,2-benzothiazol-3-amine]",5.33
19,"3,3-diethyl-5-[(E)-[isobutyl-(5-methoxy-1,1-dioxo-1,2-benzothiazol-3-yl)hydrazono]methyl]indolin-2-one [Ex 101]",5.29

# Same assay, conditions: HEK293 cells, compounds 0.1 μM to 30 μM, 24 h, luciferase activity
row,Compound,"Max Act. (%), TEAD-GAL4 Transactivation activity [%]"
1,"3,3-diethyl-5-[(E)-[isobutyl-(5-methoxy-1,1-dioxo-1,2-benzothiazol-3-yl)hydrazono]methyl]indolin-2-one [Ex 101]",90
